In PubChem BioAssay AID330 (DTP/NCI, 2004):
Values joined by “and” are separate entries in the source; they are usually repeats but may differ in a detail not shown here. Equal values may be shown once. Inconclusive results and toxic doses are left out. The calls were made as follows: active = survival T/C of 150% or more; inactive = T/C below 125% in these data.

System: P388 leukemia ip, CD2F1 mice, survival T/C
Experiment: NCI In Vivo Anticancer Drug Screen. Data for tumor model P388 Leukemia (intraperitoneal) in CD2F1 (CDF1) mice
Conditions: endpoint: median survival time, higher = longer survival
Procedure, shortened: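 Mice carrying the transplanted tumor received test compound or vehicle. Survival was recorded in each group, and the value is the treated-group measurement divided by that of the vehicle-treated control group.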

[1] = dose: 50.0 mg/kg/injection, schedule: Q01DX005 (ip), vehicle: saline with Tween-80
[2] = dose: 25.0 mg/kg/injection, schedule: Q01DX009 (ip), vehicle: saline with Tween-80
[3] = dose: 12.5 mg/kg/injection, schedule: Q01DX009 (ip), vehicle: distilled water + Tween-80
[4] = dose: 25.0 mg/kg/injection, schedule: Q01DX009 (ip), vehicle: distilled water + Tween-80
[5] = dose: 50.0 mg/kg/injection, schedule: Q01DX009 (ip), vehicle: distilled water + Tween-80
[6] = dose: 60.0 mg/kg/injection, schedule: Q01DX005 (ip), vehicle: saline with Tween-80
[7] = dose: 120.0 mg/kg/injection, schedule: Q01DX005 (ip), vehicle: saline with Tween-80
[8] = dose: 240.0 mg/kg/injection, schedule: Q01DX005 (ip), vehicle: saline with Tween-80

Measured: T/C

C=CC1=C(C)c2cc3[n-]c(c(CC(=O)O)c4nc(cc5[n-]c(cc1n2)c(C)c5CC)C(C)=C4C(=O)O)C(CCC(=O)O)C3C.[Pt+2] (stereo unspecified)
inactive: dose: 25.0 mg/kg/injection, schedule: Q04DX002 (ip), vehicle: saline 96 % of control | dose: 50.0 mg/kg/injection, schedule: Q04DX002 (ip), vehicle: saline 99 % of control | dose: 100.0 mg/kg/injection, schedule: Q04DX002 (ip), vehicle: saline 97 % of control | dose: 200.0 mg/kg/injection, schedule: Q04DX002 (ip), vehicle: saline 88 % of control | dose: 400.0 mg/kg/injection, schedule: Q04DX002 (ip), vehicle: saline 90 % of control

COc1cc(OC)c(C2CC(C)(OC)Oc3cc4c(cc32)OCO4)c(OC)c1 (stereo unspecified)
inactive: [1] 103 % of control | dose: 100.0 mg/kg/injection, schedule: Q01DX005 (ip), vehicle: saline with Tween-80 97 % of control | dose: 200.0 mg/kg/injection, schedule: Q01DX005 (ip), vehicle: saline with Tween-80 90 % of control

COc1cc(/C=C/[N+](=O)[O-])c(OC)cc1Br
inactive: [2] 122 % of control

NCCCNCCCNc1nc2nc(N)nc(N)c2nc1-c1ccc([N+](=O)[O-])cc1
inactive: dose: 6.25 mg/kg/injection, schedule: Q01DX005 (ip), vehicle: saline with Tween-80 99 % of control | dose: 12.5 mg/kg/injection, schedule: Q01DX005 (ip), vehicle: saline with Tween-80 101 % of control | dose: 25.0 mg/kg/injection, schedule: Q01DX005 (ip), vehicle: saline with Tween-80 105 % of control | [1] 97 % of control

CCOC(=O)c1cc2c(OC)c(OC)ccc2c2[nH]cc(C#N)c(=O)c12
inactive: [3] 100 % of control | [4] 94 % of control | [5] 93 % of control | dose: 100.0 mg/kg/injection, schedule: Q01DX009 (ip), vehicle: distilled water + Tween-80 90 % of control | dose: 200.0 mg/kg/injection, schedule: Q01DX009 (ip), vehicle: distilled water + Tween-80 86 % of control

CC(C)C(NC(=O)OCC1c2ccccc2-c2ccccc21)C(=O)O (stereo unspecified)
inactive: dose: 50.0 mg/kg/injection, schedule: Q01DX005 (ip), vehicle: Klucel (hydroxypropylcellulose) (HPC) 104 % of control | dose: 100.0 mg/kg/injection, schedule: Q01DX005 (ip), vehicle: Klucel (hydroxypropylcellulose) (HPC) 99 % of control | dose: 200.0 mg/kg/injection, schedule: Q01DX005 (ip), vehicle: Klucel (hydroxypropylcellulose) (HPC) 98 % of control

CCOC(=O)Nc1cc(Cl)c2nnn(C(=O)OCC)c2n1
inactive: dose: 6.25 mg/kg/injection, schedule: Q01DX009 (ip), vehicle: other 105 % of control | dose: 11.0 mg/kg/injection, schedule: Q01DX009 (ip), vehicle: other 103 % of control | dose: 12.5 mg/kg/injection, schedule: Q01DX009 (ip), vehicle: other 115 % of control | dose: 16.5 mg/kg/injection, schedule: Q01DX009 (ip), vehicle: other 106 % of control | dose: 25.0 mg/kg/injection, schedule: Q01DX009 (ip), vehicle: other 106 % of control | dose: 37.5 mg/kg/injection, schedule: Q01DX009 (ip), vehicle: other 112 % of control | dose: 50.0 mg/kg/injection, schedule: Q01DX009 (ip), vehicle: other 122 % of control | dose: 100.0 mg/kg/injection, schedule: Q01DX009 (ip), vehicle: other 115 % of control

O=c1sc2ccccc2n2cccc12
inactive: [6] 92 % of control | [7] 94 % of control | [8] 92 % of control

CCOC(=O)CCCCSCCCCC(=O)OCC
inactive: dose: 100.0 mg/kg/injection, schedule: Q01DX001 (ip), vehicle: saline with Tween-80 100 % of control | dose: 200.0 mg/kg/injection, schedule: Q01DX001 (ip), vehicle: saline with Tween-80 100 % of control | dose: 400.0 mg/kg/injection, schedule: Q01DX001 (ip), vehicle: saline with Tween-80 100 % of control

CC(C)(C)OC(=O)C(Cc1cnc2nc(N)nc(N)c2n1)C(=O)OC(C)(C)C
inactive: dose: 3.13 mg/kg/injection, schedule: Q01DX009 (ip), vehicle: distilled water + Tween-80 103 % of control | dose: 6.25 mg/kg/injection, schedule: Q01DX009 (ip), vehicle: distilled water + Tween-80 98 % of control | [3] 95 % of control | [4] 95 % of control | [5] 93 % of control

c1nc(SSc2ncnc3nc[nH]c23)c2[nH]cnc2n1
inactive: dose: 12.5 mg/kg/injection, schedule: Q01DX009 (ip), vehicle: saline with Tween-80 113 % of control | [2] 118 % of control | dose: 50.0 mg/kg/injection, schedule: Q01DX009 (ip), vehicle: saline with Tween-80 100 % of control

Cc1cc(N2C(=O)CCSC2=S)ccc1Br
inactive: dose: 50.0 mg/kg/injection, schedule: Q01DX009 (ip), vehicle: suspension in saline 87 % of control | dose: 100.0 mg/kg/injection, schedule: Q01DX009 (ip), vehicle: suspension in saline 104 % of control | dose: 200.0 mg/kg/injection, schedule: Q01DX009 (ip), vehicle: suspension in saline 116 % of control

O=C1C=C(NCCCC2CCCN3CCCCC23)C(=O)c2ccccc21 (stereo unspecified)
inactive: dose: 6.25 mg/kg/injection, schedule: Q01DX005 (ip), vehicle: Klucel (hydroxypropylcellulose) (HPC) 95 % of control | dose: 12.5 mg/kg/injection, schedule: Q01DX005 (ip), vehicle: Klucel (hydroxypropylcellulose) (HPC) 98 % of control | dose: 25.0 mg/kg/injection, schedule: Q01DX005 (ip), vehicle: Klucel (hydroxypropylcellulose) (HPC) 98 % of control

C=CCc1cc(/C(CC)=C(/CC)c2ccc(OCCN(CC)CC)c(CC=C)c2)ccc1OCCN(CC)CC
inactive: dose: 50.0 mg/kg/injection, schedule: Q01DX005 (ip), vehicle: saline + Tween-80 + alcohol 99 % of control | dose: 100.0 mg/kg/injection, schedule: Q01DX005 (ip), vehicle: saline + Tween-80 + alcohol 93 % of control | dose: 200.0 mg/kg/injection, schedule: Q01DX005 (ip), vehicle: saline + Tween-80 + alcohol 104 % of control

OCC12C=COC1OC2(c1ccccc1)c1ccccc1 (stereo unspecified)
inactive: dose: 15.0 mg/kg/injection, schedule: Q01DX005 (ip), vehicle: saline with Tween-80 100 % of control | dose: 30.0 mg/kg/injection, schedule: Q01DX005 (ip), vehicle: saline with Tween-80 95 % of control | [6] 89 % of control and 98 % of control

O=C(Nc1ccccc1)C1C(=O)C(=O)N(c2ccccc2)C1=O (stereo unspecified)
inactive: dose: 50.0 mg/kg/injection, schedule: Q01DX009 (ip), vehicle: Klucel (hydroxypropylcellulose) (HPC) 107 % of control | dose: 100.0 mg/kg/injection, schedule: Q01DX009 (ip), vehicle: Klucel (hydroxypropylcellulose) (HPC) 101 % of control | dose: 200.0 mg/kg/injection, schedule: Q01DX009 (ip), vehicle: Klucel (hydroxypropylcellulose) (HPC) 99 % of control

CN(C)c1ccc(/C=N/NC(=O)CC2CCCCC2)cc1
inactive: [6] 100 % of control | [7] 108 % of control | [8] 102 % of control
